# In patent US8389539B2, “Azacyclic derivatives” (Hoffman-La Roche Inc., priority 2009, dated 2013):
# Target: T1, human HSL (Homo sapiens, UniProt Q05469)
# T1 construct: overlapping PCR to generate a full length human HSL ORF with a 3′-His6 tag; His6 (C); made in house; host or cells: High 5 insect cells (baculovirus, pFast-BAC)
# T1 sequence (Q05469 1-1076): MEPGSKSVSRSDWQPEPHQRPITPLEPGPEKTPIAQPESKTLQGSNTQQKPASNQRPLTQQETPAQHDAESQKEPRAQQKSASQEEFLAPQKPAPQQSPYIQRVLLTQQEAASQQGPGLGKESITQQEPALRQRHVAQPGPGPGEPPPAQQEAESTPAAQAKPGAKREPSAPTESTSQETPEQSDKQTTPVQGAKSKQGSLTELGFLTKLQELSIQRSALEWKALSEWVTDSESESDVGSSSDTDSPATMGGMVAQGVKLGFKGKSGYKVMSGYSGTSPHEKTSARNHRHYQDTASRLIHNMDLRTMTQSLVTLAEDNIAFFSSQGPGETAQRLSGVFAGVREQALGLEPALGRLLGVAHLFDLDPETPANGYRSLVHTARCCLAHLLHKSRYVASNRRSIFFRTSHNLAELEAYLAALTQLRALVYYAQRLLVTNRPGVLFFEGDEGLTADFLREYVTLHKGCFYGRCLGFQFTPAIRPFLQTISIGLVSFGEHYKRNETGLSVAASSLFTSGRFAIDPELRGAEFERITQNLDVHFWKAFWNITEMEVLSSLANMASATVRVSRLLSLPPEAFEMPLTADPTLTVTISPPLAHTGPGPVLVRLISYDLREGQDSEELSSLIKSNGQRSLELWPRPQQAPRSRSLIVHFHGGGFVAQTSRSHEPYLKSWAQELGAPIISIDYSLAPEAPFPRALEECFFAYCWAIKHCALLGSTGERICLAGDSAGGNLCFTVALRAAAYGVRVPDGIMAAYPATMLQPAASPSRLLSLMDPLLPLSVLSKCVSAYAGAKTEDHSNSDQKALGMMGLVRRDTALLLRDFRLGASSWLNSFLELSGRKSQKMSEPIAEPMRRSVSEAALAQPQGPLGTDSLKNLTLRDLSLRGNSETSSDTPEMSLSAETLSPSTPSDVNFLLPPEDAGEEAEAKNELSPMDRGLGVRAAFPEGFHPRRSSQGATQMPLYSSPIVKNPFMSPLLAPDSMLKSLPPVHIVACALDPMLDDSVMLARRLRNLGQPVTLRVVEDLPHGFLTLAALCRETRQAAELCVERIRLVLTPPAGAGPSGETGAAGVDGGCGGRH
# Experiment: Human Hormone-Sensitive Lipase (HSL) enzyme inhibition assay (colorimetric, DMPT substrate)
# Format: biochemical
# Conditions: human full length HSL-His6, 2,3-dimercapto-1-propanol tributyrate substrate, 37° C. 20 minutes, absorbance at 405 nm; read-out: HSL hum IC50
# Procedure: 1) Cloning: cDNA was prepared from commercial human brain polyA+ RNA and used as a template in overlapping PCR to generate a full length human HSL ORF with a 3′-His6 tag. This full length insert was cloned into the pFast-BAC vector and the DNA-sequence of several single clones was verified. DNA from a correct full length clone with the 3′His6 tag was used to transform the E. coli strain DH10BAC. Resulting bacmid DNA was used to generate a titered baculovirus stock for protein generation.
# Cells were thawed. […] was done at 3×30 sec., Lubrol PX was added to 0.2% final concentration followed by stirring for 15 min. at 4° C. and centrifugation at 25 k×g, 60 min., 4° C. […] Supernatant was removed, the resin washed in the centrifuge vessel using 5 volumes of Base Buffer containing 0.2% Lubrol PX. Centrifugation was done again, then the supernatant discarded. The resin was poured onto a 0.8 μm membrane in a disposable filter unit (Nalge 450-0080), and washed with 5 volumes of Base Buffer containing 0.2% Lubrol PX. It was then washed with 30 volumes of Base Buffer containing 60 mM imidazole pH 7.5 at 4° C. The protein was eluated with 5 volumes of 25 mM Tris-Cl, 300 mM NaCl, 200 mM imidazole, 10 mM 2-mercaptoethanol, pH 7.5 at 4° C. by tumbling resin with buffer end-over-end, 30 min., 4° C. The resin was captured on a 0.2 μm membrane disposable filter unit (Millipore SCGP U02 RE) and the eluate collected in the reservoir. The eluate was concentrated using a 30 k MWCO centrifugal filter device (Sartorius Vivascience Vivacell 100, VC1022), to 20 ml. It was then dialyzed overnight at 4° C., two times against 2 L of 10% glycerol, 25 mM Tris-Cl, 300 mM NaCl, 0.2 mM EDTA, 0.2 mM DTT, pH 7.5 at 4° C. The protein was filtered using a 0.22 μm disposable filter unit (Millipore SCGP00525). The protein concentration was calculated from absorbance at 280 nm, using 280=0.67 cm-1 mg-1. […] The protein was stored at −80° C.
# Human Hormone-Sensitive Lipase (HSL) Enzyme Inhibition Assay:
# HSL enzyme activity was measured by a colorimetric assay using 2,3-dimercapto-1-propanol tributyrate (Aldrich, St. Louis, Mo.) as a substrate. Typically, 1.5 mM 2,3-dimercapto-1-propanol tributyrate (DMPT) in 100 mM MOPS, pH 7.2, 0.2 mg/ml fatty acid-free BSA was prepared by sonication at 4° C. to homogenous suspension. Test compounds (2 mM stock in DMSO) were diluted 3 fold in series in DMSO. Compound solutions were diluted 24 fold in 1.5 mM DMPT containing solution and 18 ul per well was added to 384-well microplates (Corning Costar). Twelve microliters per well of human HSL (15 ug/ml) was added and the reaction mixture was incubated at 37° C. for 20 minutes. Six microliters of 12 mM dithio-bis-(2-nitrobenzoic acid) (DTNB) in DMSO plus 1.2% SDS and 0.6% Triton X-100 were added and the mixture was incubated at room temperature for 15 minutes. Product production was monitored by reading absorbance at 405 nm on an Envision Reader (PerkinElmer Life and Analytical Sciences, Shelton, Conn.).
row,Structure (SMILES),IC50
1,"CC(C(=O)Nc1ccc(F)cc1)N1CCC2(CCN(c3ccc(C4CC4)cc3)C2=O)CC1 (stereo not shown) [Example 25, 2-[2-(4-Cyclopropyl-phenyl)-1-oxo-2,8-diaza-spiro[4.5]dec-8-yl]-N-(4-fluoro-phenyl)-propionamide]",40 nM
2,"CCC(C(=O)Nc1ccc(F)cc1)N1CCC2(CCN(c3ccc(C4CC4)cc3)C2=O)CC1 (stereo not shown) [Example 26, 2-[2-(4-Cyclopropyl-phenyl)-1-oxo-2,8-diaza-spiro[4.5]dec-8-yl]-N-(4-fluoro-phenyl)-butyramide]",50 nM
3,"CCCCNC(=O)C(C)N1CCC2(CCN(c3ccc(C4CC4)cc3)C2=O)CC1 (stereo not shown) [Example 27, N-Butyl-2-[2-(4-cyclopropyl-phenyl)-1-oxo-2,8-diaza-spiro[4.5]dec-8-yl]-propionamide]",30 nM
4,"CCCCNC(=O)C(CC)N1CCC2(CCN(c3ccc(C4CC4)cc3)C2=O)CC1 (stereo not shown) [Example 28, N-Butyl-2-[2-(4-cyclopropyl-phenyl)-1-oxo-2,8-diaza-spiro[4.5]dec-8-yl]-butyramide]",30 nM
5,"CCCCNC(=O)C(c1ccccc1)N1CCC2(CCN(c3ccc(C4CC4)cc3)C2=O)CC1 (stereo not shown) [Example 29, N-Butyl-2-[2-(4-cyclopropyl-phenyl)-1-oxo-2,8-diaza-spiro[4.5]dec-8-yl]-2-phenyl-acetamide]",40 nM
6,"CCCCNC(=O)C(CCCC)N1CCC2(CCN(c3ccc(C4CC4)cc3)C2=O)CC1 (stereo not shown) [Example 30, 2-[2-(4-Cyclopropyl-phenyl)-1-oxo-2,8-diaza-spiro[4.5]dec-8-yl]-hexanoic acid butylamide]",20 nM
7,"CCCCNC(=O)C(C(C)C)N1CCC2(CCN(c3ccc(C4CC4)cc3)C2=O)CC1 (stereo not shown) [Example 31, N-Butyl-2-[2-(4-cyclopropyl-phenyl)-1-oxo-2,8-diaza-spiro[4.5]dec-8-yl]-3-methyl-butyramide]",20 nM
8,"O=C1N(c2ccc(C3CC3)cc2)CCC12CCN(C[C@@H](O)c1ccccc1)CC2 [Example 32, 2-(4-Cyclopropyl-phenyl)-8-((S)-2-hydroxy-2-phenyl-ethyl)-2,8-diaza-spiro[4.5]decan-1-one]",90 nM
9,"O=C1N(c2ccc(C3CC3)cc2)CCC12CCN(C[C@H](O)c1ccccc1)CC2 [Example 33, 2-(4-Cyclopropyl-phenyl)-8-((R)-2-hydroxy-2-phenyl-ethyl)-2,8-diaza-spiro[4.5]decan-1-one]",40 nM
10,"CC(O)(CN1CCC2(CC1)CCN(c1ccc(C3CC3)cc1)C2=O)c1ccccc1 (stereo not shown) [Example 34, 2-(4-Cyclopropyl-phenyl)-8-(2-hydroxy-2-phenyl-propyl)-2,8-diaza-spiro[4.5]decan-1-one]",100 nM
11,"O=C1N(c2ccc(C3CC3)cc2)CCC12CCN(C[C@H](O)c1ccc(F)cc1)CC2 [Example 35, 2-(4-Cyclopropyl-phenyl)-8-[(R)-2-(4-fluoro-phenyl)-2-hydroxy-ethyl]-2,8-diaza-spiro[4.5]decan-1-one]",20 nM
12,"O=C1N(c2ccc(C3CC3)cc2)CCC12CCN(C[C@H](O)c1cccc(Cl)c1)CC2 [Example 36, 8-[(R)-2-(3-Chloro-phenyl)-2-hydroxy-ethyl]-2-(4-cyclopropyl-phenyl)-2,8-diaza-spiro[4.5]decan-1-one]",30 nM
13,"O=C1N(c2ccc(C3CC3)cc2)CCC12CCN(CC(O)c1ccc(Cl)c(Cl)c1)CC2 (stereo not shown) [Example 37, 2-(4-Cyclopropyl-phenyl)-8-[2-(3,4-dichloro-phenyl)-2-hydroxy-ethyl]-2,8-diaza-spiro[4.5]decan-1-one]",30 nM
14,"O=C1N(c2ccc(C3CC3)cc2)CCC12CCN(CC(O)c1ccc(Cl)cc1Cl)CC2 (stereo not shown) [Example 38, 2-(4-Cyclopropyl-phenyl)-8-[2-(2,4-dichloro-phenyl)-2-hydroxy-ethyl]-2,8-diaza-spiro[4.5]decan-1-one]",30 nM
15,"COc1ccc(C(C(O)C(N)=O)N2CCC3(CCN(c4ccc(C5CC5)cc4)C3=O)CC2)cc1 (stereo not shown) [Example 40, 3-[2-(4-Cyclopropyl-phenyl)-1-oxo-2,8-diaza-spiro[4.5]dec-8-yl]-2-hydroxy-3-(4-methoxy-phenyl)-propionamide]",165 nM
16,"CCCCNC(=O)[C@H](CCCC)N1CCC2(CCN(c3ccc(C4CC4)cc3)C2=O)CC1 [Example 41, (S)-2-[2-(4-Cyclopropyl-phenyl)-1-oxo-2,8-diaza-spiro[4.5]dec-8-yl]-hexanoic acid butylamide]",47 nM
17,"CCCCNC(=O)[C@@H](CCCC)N1CCC2(CCN(c3ccc(C4CC4)cc3)C2=O)CC1 [Example 42, (R)-2-[2-(4-Cyclopropyl-phenyl)-1-oxo-2,8-diaza-spiro[4.5]dec-8-yl]-hexanoic acid butylamide]",11 nM
18,"CCc1ccc(N2CCC3(CCN(CC(=O)c4ccc(Cl)cc4Cl)CC3)C2=O)cc1 [Example 43, 8-[2-(2,4-Dichloro-phenyl)-2-oxo-ethyl]-2-(4-ethyl-phenyl)-2,8-diaza-spiro[4.5]decan-1-one]",36 nM
19,"O=C1N(c2ccc(OCC(F)(F)F)cc2)CCC12CCN(CC(O)c1ccc(Cl)cc1Cl)CC2 (stereo not shown) [Example 44, 8-[2-(2,4-Dichloro-phenyl)-2-hydroxy-ethyl]-2-[4-(2,2,2-trifluoro-ethoxy)-phenyl]-2,8-diaza-spiro[4.5]decan-1-one]",26 nM
20,"C[C@@H](Oc1ccc(N2CCC3(CCN(CC(O)c4ccc(Cl)cc4Cl)CC3)C2=O)cn1)C(F)(F)F (stereo partly drawn) [Example 45, 8-[2-(2,4-Dichloro-phenyl)-2-hydroxy-ethyl]-2-[6-((R)-2,2,2-trifluoro-1-methyl-ethoxy)-pyridin-3-yl]-2,8-diaza-spiro[4.5]decan-1-one]",22 nM
21,"O=C1N(c2ccc(CC(F)(F)F)cc2)CCC12CCN(CC(O)c1ccc(Cl)cc1Cl)CC2 (stereo not shown) [Example 46, 8-[2-(2,4-Dichloro-phenyl)-2-hydroxy-ethyl]-2-[4-(2,2,2-trifluoro-ethyl)-phenyl]-2,8-diaza-spiro[4.5]decan-1-one]",19 nM
22,"O=C1N(c2ccc(OCC(F)(F)F)cc2)CCC12CCN(CC(O)c1c(F)cccc1Cl)CC2 (stereo not shown) [Example 47, 8-[2-(2-Chloro-6-fluoro-phenyl)-2-hydroxy-ethyl]-2-[4-(2,2,2-trifluoro-ethoxy)-phenyl]-2,8-diaza-spiro[4.5]decan-1-one]",35 nM
